From patent EP0942911B1, “BENZOPYRANOPYRROLE AND BENZOPYRANOPYRIDINE ALPHA-1 ADRENERGIC COMPOUNDS” (Abbott Laboratories, priority 1996, dated 1998) come the findings set out here.

In assay [1] the test system is α-1A adrenoreceptor. Nature of the assay: Functional antagonism: inhibition of PE-induced contraction of canine prostate strips (Schild plot). It counts as cell-based. The following applies: phenylephrine-induced contraction. The source says: Canine prostate strips were used in vitro as previously described (Hieble, J.P., Boyce, A.J. and Caine, M., Fed. Proc., 45: 2609-2614 (1986)), to determine antagonist potencies against phenylephrine-induced contractions.
(§1) Functional assays indicative of pharmacologically defined α-1 adrenoreceptors were used to further characterize compounds. Inhibition of phenylephrine (PE)-induced contraction of canine prostate smooth muscle can be correlated with α-1A adrenoreceptor activation. […] For each of these models, agonist dose response curves were repeated against increasing concentrations of test agent to derive a Schild plot [log ([…]) against log (molarity of test agent)] to determine the pA2.

In the next assay the target is T1, α-1d adrenoreceptor (Rattus norvegicus, UniProt P23944).
T1 sequence (P23944 1-561): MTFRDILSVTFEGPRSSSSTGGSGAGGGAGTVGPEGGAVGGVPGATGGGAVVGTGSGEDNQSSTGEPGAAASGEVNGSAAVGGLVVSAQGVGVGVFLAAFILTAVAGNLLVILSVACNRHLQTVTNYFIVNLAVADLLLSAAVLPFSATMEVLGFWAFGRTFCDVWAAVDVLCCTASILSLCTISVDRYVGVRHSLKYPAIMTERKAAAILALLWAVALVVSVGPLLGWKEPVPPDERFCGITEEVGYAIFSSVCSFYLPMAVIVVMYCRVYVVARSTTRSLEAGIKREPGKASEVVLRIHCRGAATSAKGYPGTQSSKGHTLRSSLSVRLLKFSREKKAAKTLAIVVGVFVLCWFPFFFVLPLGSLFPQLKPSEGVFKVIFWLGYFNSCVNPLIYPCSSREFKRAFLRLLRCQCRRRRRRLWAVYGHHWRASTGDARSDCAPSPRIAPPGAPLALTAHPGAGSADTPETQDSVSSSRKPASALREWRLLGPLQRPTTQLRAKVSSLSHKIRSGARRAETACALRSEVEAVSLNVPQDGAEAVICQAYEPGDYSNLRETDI
Kind of assay: biochemical. Format: binding. The settings on record: [3H]-prazosin radioligand; cloned receptor in LTK cell membranes; read-out: Radioligand Binding (Ki, nM) 1d (Rat). In a few lines:
(§2)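 Membranes from LTK mouse fibroblast clones stably transfected with α-1a, α-1b or α-1d cDNA, resuspended in 50 mM Tris-HCl pH 7.4, served for radioligand displacement read by liquid scintillation. Rat submaxillary gland tissue supplied the α-1A receptor.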

The next assay deals with α-1 Adrenoceptors. Nature of the assay: Functional antagonism in rat aorta (method not described). It counts as cell-based.
Assay [2] deals with T2, α-1A adrenoreceptor (rat submaxillary gland) (Rattus norvegicus, UniProt P43140).
T2 sequence (P43140 1-466): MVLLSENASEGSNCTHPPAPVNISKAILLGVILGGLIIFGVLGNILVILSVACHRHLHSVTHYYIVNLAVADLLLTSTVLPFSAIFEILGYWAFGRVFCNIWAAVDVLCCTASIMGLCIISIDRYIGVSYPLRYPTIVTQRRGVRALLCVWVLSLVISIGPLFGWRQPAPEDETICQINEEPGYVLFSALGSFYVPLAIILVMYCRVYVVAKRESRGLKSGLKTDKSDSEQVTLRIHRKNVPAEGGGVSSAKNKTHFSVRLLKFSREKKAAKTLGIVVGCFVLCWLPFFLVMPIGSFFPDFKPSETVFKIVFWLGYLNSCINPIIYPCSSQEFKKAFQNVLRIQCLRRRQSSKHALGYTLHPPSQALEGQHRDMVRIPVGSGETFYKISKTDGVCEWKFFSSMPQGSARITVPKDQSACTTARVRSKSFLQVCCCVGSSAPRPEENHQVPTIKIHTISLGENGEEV
Nature of the assay: biochemical. It counts as binding. The settings on record: [3H]-prazosin radioligand; rat submaxillary gland membranes; read-out: Radioligand Binding (Ki, nM) 1A (Rat). The method, boiled down:
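Membranes were prepared from rat submaxillary glands as the α-1A adrenoreceptor source. Competition binding followed Greengrass and Bremner, with bound radioligand measured by scintillation counting.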

Assay [3] deals with T3, α-1b adrenoreceptor (Mesocricetus auratus, UniProt P18841).
T3 sequence (P18841 1-515): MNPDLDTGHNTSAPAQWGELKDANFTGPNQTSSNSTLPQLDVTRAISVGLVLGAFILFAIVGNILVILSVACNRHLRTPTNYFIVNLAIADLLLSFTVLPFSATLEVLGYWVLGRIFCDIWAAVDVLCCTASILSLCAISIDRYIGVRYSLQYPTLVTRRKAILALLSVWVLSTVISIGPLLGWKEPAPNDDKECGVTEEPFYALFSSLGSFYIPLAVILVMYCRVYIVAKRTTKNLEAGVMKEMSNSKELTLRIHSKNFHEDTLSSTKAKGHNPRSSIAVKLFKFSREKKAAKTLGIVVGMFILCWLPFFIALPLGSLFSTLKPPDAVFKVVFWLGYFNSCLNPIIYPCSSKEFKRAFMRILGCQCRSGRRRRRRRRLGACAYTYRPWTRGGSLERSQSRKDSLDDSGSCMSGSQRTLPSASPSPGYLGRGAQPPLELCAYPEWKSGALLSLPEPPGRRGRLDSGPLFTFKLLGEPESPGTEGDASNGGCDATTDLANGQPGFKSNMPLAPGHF
Nature of the assay: biochemical. The settings on record: [3H]-prazosin radioligand; cloned receptor in LTK cell membranes; read-out: Radioligand Binding (Ki, nM) 1b (Hamster). Format: binding, hamster. In a few lines:
as §2

Assay [4] addresses T4, α-1a adrenoreceptor (Bos taurus, UniProt P18130).
T4 sequence (P18130 1-466): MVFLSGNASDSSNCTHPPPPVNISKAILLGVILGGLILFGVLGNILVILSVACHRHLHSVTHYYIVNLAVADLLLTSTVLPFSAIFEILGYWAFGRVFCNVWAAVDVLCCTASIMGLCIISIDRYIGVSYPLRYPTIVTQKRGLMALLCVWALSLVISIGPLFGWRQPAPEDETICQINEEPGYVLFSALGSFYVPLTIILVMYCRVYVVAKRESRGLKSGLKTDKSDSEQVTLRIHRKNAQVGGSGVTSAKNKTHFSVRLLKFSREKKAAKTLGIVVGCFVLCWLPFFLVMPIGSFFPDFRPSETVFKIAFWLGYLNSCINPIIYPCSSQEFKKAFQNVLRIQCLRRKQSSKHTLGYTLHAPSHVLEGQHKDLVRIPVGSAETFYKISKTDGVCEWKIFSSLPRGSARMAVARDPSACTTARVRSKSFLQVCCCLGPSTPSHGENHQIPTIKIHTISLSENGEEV
Kind of assay: biochemical. Format: binding, bovine. The settings on record: [3H]-prazosin radioligand; cloned receptor in LTK cell membranes; read-out: Radioligand Binding (Ki, nM) 1a (Bovine). The method, boiled down: as §2

Assay [5] deals with T5, α-1B adrenoreceptor (Rattus norvegicus, UniProt P15823).
T5 construct: from tissue; host or cells: rat spleen
T5 sequence (P15823 1-515): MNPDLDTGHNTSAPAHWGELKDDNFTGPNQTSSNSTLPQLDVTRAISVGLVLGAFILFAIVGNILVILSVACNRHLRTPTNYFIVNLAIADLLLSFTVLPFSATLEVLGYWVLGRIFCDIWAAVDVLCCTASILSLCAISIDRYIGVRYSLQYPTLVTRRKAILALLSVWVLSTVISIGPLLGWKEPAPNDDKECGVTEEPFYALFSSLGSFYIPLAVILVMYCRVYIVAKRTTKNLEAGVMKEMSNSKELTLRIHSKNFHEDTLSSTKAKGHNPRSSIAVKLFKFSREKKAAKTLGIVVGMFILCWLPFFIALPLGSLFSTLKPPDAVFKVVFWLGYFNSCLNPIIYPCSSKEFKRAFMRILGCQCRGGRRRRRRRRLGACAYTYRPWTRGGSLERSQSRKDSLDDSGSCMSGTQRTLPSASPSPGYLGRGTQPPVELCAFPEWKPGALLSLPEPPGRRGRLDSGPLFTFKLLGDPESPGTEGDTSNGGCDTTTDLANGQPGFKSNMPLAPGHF
Kind of assay: cell-based. The following applies: phenylephrine-induced contraction; Schild plot.
Text: as §1

The structures appear in SMILES notation. Where a name gives a salt, the structure may show the parent alone.

For the compound `COc1cccc2c1[C@@H]1CCN(CCCCn3c(=O)[nH]c4c(sc5cccnc54)c3=O)C[C@H]1CO2` (racemic) [Example 88, 3-[4-((±)-trans-10-Methoxy-1,3,4,4a,5,10b-hexahydro-2H-[1]-benzopyrano[3,4-c]pyrido-3-yl)butyl]-pyrido[2',3':4,5]thieno[3,2-d]pyrimidine-2,4(1H,3H)-dione hydrochloride], the “In Vitro Characterization (pA2) Dog Prostate” value in the assay on α-1A adrenoreceptor [1] turned out to be 8.09.

The term Ki denotes a dissociation constant, usually derived from enzyme kinetics or from competition with a known ligand. For the compound `COc1cccc2c1[C@@H]1CN(CCCCn3c(=O)[nH]c4c(sc5nc(Cl)ccc54)c3=O)C[C@@H]1CO2` [Example 32, 3-[4-((3aR,9bR)-cis-9-Methoxy-1,2,3,3a,4,9b-hexahydro-[1]-benzopyrano[3,4-c]pyrrol-2-yl)butyl]-7-chloro-pyrido[3',2':4,5]thieno[3,2-d]pyrimidine-2,4(1H,3H)-dione hydrochloride], the Ki on α-1d adrenoreceptor was 0.86 nM. Also, the “In Vitro Characterization (pA2) Rat Aorta” value in the assay with α-1 Adrenoceptors came to 9.31.

For the compound `COc1cnc2sc3c(=O)n(CCCCN4CC[C@H]5c6c(OC)cccc6OC[C@@H]5C4)c(=O)[nH]c3c2n1` [Example 99, 3-[4-((4aS,10bR)-trans-10-Methoxy-1,3,4,4a,5,10b-hexahydro-2H-[1]-benzopyrano[3,4-c]pyrido-3-yl)butyl]-8-methoxy-pyrazino[2',3':4,5]thieno[3,2-d]pyrimidine-2,4(1H,3H)-dione hydrochloride], the Ki in assay [2] was determined as 14.9 nM; at α-1b adrenoreceptor [3], 57.1 nM; on α-1a adrenoreceptor [4], 1.73 nM; on α-1d adrenoreceptor, 5.81 nM.

As for `COc1cccc2c1[C@@H]1CCN(CCCCn3c(=O)[nH]c4c(sc5ncc(-c6ccccc6)nc54)c3=O)C[C@H]1CO2` [Example 100, 3-[4-((4aS,10bR)-trans-10-Methoxy-1,3,4,4a,5,10b-hexahydro-2H-[1]-benzopyrano[3,4-c]pyrido-3-yl)butyl]-8-phenyl-pyrazino[2',3':4,5]thieno[3,2-d]pyrimidine-2,4(1H,3H)-dione hydrochloride], the Ki in assay [2] came to 30.5 nM; at α-1b adrenoreceptor [3], 27 nM; at α-1a adrenoreceptor [4] it was 5.83 nM; at α-1d adrenoreceptor, 7.59 nM.

As to `COc1cccc2c1[C@@H]1CCN(CCCCn3c(=O)[nH]c4c(sc5ccc(-c6ccccc6)nc54)c3=O)C[C@H]1CO2` [Example 101, 3-[4-((4aS,10bR)-trans-10-Methoxy-1,3,4,4a,5,10b-hexahydro-2H-[1]-benzopyrano[3,4-c]pyrido-3-yl)butyl]-8-phenyl-pyrido[2',3':4,5]thieno[3,2-d]pyrimidine-2,4(1H,3H)-dione dihydrochloride], the inhibition constant (Ki) is 1.27 nM in assay [2], 8.41 nM on α-1b adrenoreceptor [3], 0.063 nM on α-1a adrenoreceptor [4] and 0.597 nM on α-1d adrenoreceptor.

Consider `COc1cccc2c1[C@@H]1CCN(CCCCn3c(=O)[nH]c4c(sc5nc(Cl)ccc54)c3=O)C[C@H]1CO2` [Example 102, 3-[4-((4aS,10bR)-trans-10-Methoxy-1,3,4,4a,5,10b-hexahydro-2H-[1]-benzopyrano[3,4-c]pyrido-3-yl)butyl]-7-chloro-pyrido[3',2':4,5]thieno[3,2-d]pyrimidine-2,4(1H,3H)-dione hydrochloride], for which the inhibition constant (Ki) in assay [2] stood at 1.89 nM; at α-1b adrenoreceptor [3] it was 6.26 nM; at α-1a adrenoreceptor [4], 0.113 nM; at α-1d adrenoreceptor, 0.651 nM.

On to `COc1ccc2c(n1)sc1c(=O)n(CCCCN3CC[C@H]4c5c(OC)cccc5OC[C@@H]4C3)c(=O)[nH]c12` [Example 103, 3-[4-((4aS,10bR)-trans-10-Methoxy-1,3,4,4a,5,10b-hexahydro-2H-[1]-benzopyrano[3,4-c]pyrido-3-yl)butyl]-7-methoxy-pyrido[3',2':4,5]thieno[3,2-d]pyrimidine-2,4(1H,3H)-dione hydrochloride], for which the Ki in assay [2] turned out to be 0.909 nM; on α-1b adrenoreceptor [3] it was 3.33 nM; on α-1a adrenoreceptor [4], 0.115 nM; at α-1d adrenoreceptor, 0.243 nM.

For `COc1ccc(O)c2c1[C@@H]1CN(CCCCn3c(=O)[nH]c4c(sc5ncc(-c6ccccc6)nc54)c3=O)C[C@@H]1CO2` [Example 105, 3-[4-((3aR,9bR)-cis-6-Hydroxy-9-methoxy-1,2,3,3a,4,9b-hexahydro-[1]-benzopyrano[3,4-c]pyrrol-2-yl)butyl]-8-phenyl-pyrazino[2',3':4,5]thieno[3,2-d]pyrimidine-2,4(1H,3H)-dione], the inhibitory constant (Ki) in assay [2] was 26.3 nM; on α-1b adrenoreceptor [3], 1620 nM; at α-1a adrenoreceptor [4] it was 6.42 nM; at α-1d adrenoreceptor it was 55.9 nM.

Take `COc1cc2nc(N3CCN(C(=O)C4CCCO4)CC3)nc(N)c2cc1OC` (stereo not shown) [Terazosin, terazosin, reference compound]: the Ki on α-1a adrenoreceptor [4] amounted to 3.31 nM; at α-1d adrenoreceptor, 0.689 nM. Moreover, the “In Vitro Characterization (pA2) Rat Spleen” value on α-1B adrenoreceptor [5] is 8.60. Moreover, in the assay with α-1 Adrenoceptors, the “In Vitro Characterization (pA2) Rat Aorta” value is reported as 8.65.
